Patent US7772255B2, “Method of treating tumors with azaxanthones” (Supratek Pharma, Inc., priority 2005, dated 2010)
Counter-ions that a name gives are not always drawn.

Experiments:
CSML100 cells = assay: CSML100 (murine mammary carcinoma) experimental metastasis model (Example 24); assay type: in vivo, mouse; settings: 100 mg/kg/day i.v., 10 daily injections
Procedure: Amlexanox solution for injections was prepared according to the Example 4. CSML100 cells were inoculated intravenously in 26 female A/J mice (6-7 weeks old). Animals were then divided randomly into two groups: 1) untreated control (n=16, saline) and 2) Amlexanox treated (n=10, 100 mg/kg/day, i.v.; 10 daily injections). The control group received i.v. injections with 5 ml/kg (volume/body weight) of saline, while Amlexanox was administrated intravenously daily with a dose of 100 mg/kg in a volume of 5 ml/kg. Treatment was started on the day following the day of tumor cell implantation and continued for 10 consecutive days. The animal body weight was recorded as an index of treatment toxicity during the experiment. From the day 10 after cell implantation, one animal in the control group was sacrificed every day to monitor the metastasis development. All remaining animals were sacrificed on the day 18 for routine metastasis inspection. Although all organs were routinely screened, metastatic formation was only found in the lungs. The metastatic colonies on the organ surface were enumerated immediately following the removal of the organ.
A maximum body weight loss in treated group was less than 10%. The data are expressed as mean±SEM for the number of metastatic sites on the lung surface.

[1] = test system: S100A4-positive CSML100 cells; assay: Metastasis formation by S100A4-positive CSML100 cells in animal model (Example 6); assay type: in vivo, mouse; settings: 100 mg/kg i.v. daily for 10 days
Procedure: In both groups the injection volume was 5 ml/kg. The treatments were started from the day following the tumor cell implantation for 10 consecutive days. The animal body weight was recorded as an index of treatment toxicity during the experiment.
Starting from the day 10 after the cell implantation, one animal of the control group was sacrificed every day to monitor the metastasis development. All animals were sacrificed on day 18 for routine metastasis inspection. […] The metastatic colonies on the organ surface were enumerated immediately following the removal of the organ.
The data were expressed as mean±SEM for the number of metastatic sites.

[2] = Chemical stability of Amlexanox sodium salt solution (HPLC); assay type: physicochemical; settings: 20 mg Amlexanox sodium salt in 2 mL Tris buffer pH 7.2; 0.05 molar equivalent of the listed compound; 72 hours, ambient light, access to air; HPLC peak area
Procedure: 20 mg of crystalline Amlexanox sodium salt was dissolved in a clear glass test tube in 2 mL of Tris buffer, pH 7.2. For each of the stabilizing compounds listed in the Table below, 0.05 molar equivalent of the compound was added to the solution, mixed until dissolved, and left under ambient light, and with access to the air. Concentration of Amlexanox in the sample was determined by HPLC right after preparation, and after 72 hours. The chemical stability of Amlexanox was evaluated by comparison of area under the peak of amlexanox from the two analyses.

[3] = CSML100 cells i.v. in female A/J mice, day 18, mean±SEM

SMILES | Average of lung metastasis number per animal (sample number) (CSML100 cells; [3]) | Treated/control × 100% (CSML100 cells; lung metastasis number, day 18) | maximum body weight loss (CSML100 cells; treated group, A/J mice) | Average of lung metastasis number per animal [1, 3] | Trial/control × 100% ([1]; lung metastasis number, day 18) | inhibition on metastases formation ([1]; mice inoculated CSML100 cells) | body weight loss ([1]; non-significant, A/J mice) | Retained Amlexnox [2]
CC(C)c1ccc2oc3nc(N)c(C(=O)O)cc3c(=O)c2c1 [Amlexanox, 2-amino-7-isopropyl-1-azaxanthone-3-carboxylic acid] | 18.8 ± 2.3 (9) | 48.5% | less than 10% | 18.8 ± 2.3 | 48.5% | significant inhibition on metastases formation | less than 10% | 
CC(C)c1ccc2oc3nc(N)c(C(=O)O)cc3c(=O)c2c1 [Amlexanox (salt), 2-amino-7-isopropyl-1-azaxanthone-3-carboxylic acid sodium salt] |  |  |  |  |  |  |  | 93.8%
